Measurements as given in ChEMBL document CHEMBL3885881, “DrugMatrix”.

Species: Rattus norvegicus
Assay: DrugMatrix - Regimen: Daily Repeat
Type: toxicity, organism-based, Sprague-Dawley
Parameters: regimen Daily Repeat, gender Male, age 6-8 weeks
Conditions: in vivo, iv, vehicle 100 % SALINE; for ABSOLUTE BASOPHIL / ABSOLUTE EOSINOPHIL / ABSOLUTE LYMPHOCYTE / ABSOLUTE MONOCYTE / ABSOLUTE SEGMENTED NEUTROPHIL / BASOPHIL / EOSINOPHIL / ERYTHROCYTE COUNT / HEMATOCRIT / HEMOGLOBIN / LEUKOCYTE COUNT / LYMPHOCYTE / MEAN CORPUSCULAR HEMOGLOBIN / MEAN CORPUSCULAR HEMOGLOBIN CONCENTRATION / MEAN CORPUSCULAR VOLUME / MONOCYTE / NEUTROPHIL / NUCLEATED RED BLOOD CELLS / PLATELET COUNT: tissue Blood; for ALANINE AMINOTRANSFERASE / ALBUMIN / ALKALINE PHOSPHATASE / ASPARTATE AMINOTRANSFERASE / BLOOD UREA NITROGEN / CARBON DIOXIDE / CHLORIDE / CHOLESTEROL / CREATINE PHOSPHOKINASE / CREATININE / GLUCOSE / LACTATE DEHYDROGENASE / LIPASE / PHOSPHORUS / POTASSIUM / SODIUM / TOTAL BILIRUBIN / TOTAL PROTEIN / URIC ACID: tissue Plasma
[1] = 33 mg/kg, 72 h, dose level Low, time 3 day
[2] = 33 mg/kg, 120 h, dose level Low, time 5 day
[3] = 1000 mg/kg, 72 h, dose level High, time 3 day
[4] = 1000 mg/kg, 120 h, dose level High, time 5 day

Structure (SMILES): CO/N=C(\C(=O)N[C@@H]1C(=O)N2C(C(=O)O)=C(COC(C)=O)CS[C@H]12)c1csc(N)n1 [CEFOTAXIME]
- ABSOLUTE BASOPHIL [1]: 0 CELLS/uL
- ABSOLUTE EOSINOPHIL [1]: 0 CELLS/uL
- ABSOLUTE LYMPHOCYTE [1]: 11282.67 CELLS/uL
- ABSOLUTE MONOCYTE [1]: 120 CELLS/uL
- ABSOLUTE SEGMENTED NEUTROPHIL [1]: 730.67 CELLS/uL
- BASOPHIL [1]: 0%
- EOSINOPHIL [1]: 0%
- ERYTHROCYTE COUNT [1]: 5.79 x10E6/uL
- HEMATOCRIT [1]: 35.7%
- HEMOGLOBIN [1]: 13.43 G/DL
- LEUKOCYTE COUNT [1]: 12.13 x10E3/uL
- LYMPHOCYTE [1]: 93%
- MEAN CORPUSCULAR HEMOGLOBIN [1]: 23.2 pg
- MEAN CORPUSCULAR HEMOGLOBIN CONCENTRATION [1]: 37.63 G/DL
- MEAN CORPUSCULAR VOLUME [1]: 61.63 fL
- MONOCYTE [1]: 0.67%
- NEUTROPHIL [1]: 6.33%
- NUCLEATED RED BLOOD CELLS [1]: 0 /100WBC
- PLATELET COUNT [1]: 1231.67 x10E3/uL
- ALANINE AMINOTRANSFERASE [1]: 55 u/L
- ALBUMIN [1]: 4.17 G/DL
- ALKALINE PHOSPHATASE [1]: 343 u/L
- ASPARTATE AMINOTRANSFERASE [1]: 90.67 u/L
- BLOOD UREA NITROGEN [1]: 15.67 mg/dL
- CARBON DIOXIDE [1]: 25.67 mmol/L
- CHLORIDE [1]: 103.33 MEQ/L
- CHOLESTEROL [1]: 73.67 mg/dL
- CREATINE PHOSPHOKINASE [1]: 330.67 u/L
- CREATININE [1]: 0.38 mg/dL
- GLUCOSE [1]: 167.33 mg/dL
- LACTATE DEHYDROGENASE [1]: 139.33 u/L
- LIPASE [1]: 12 u/L
- PHOSPHORUS [1]: 14.17 mg/dL
- POTASSIUM [1]: 7.29 MEQ/L
- SODIUM [1]: 146.03 MEQ/L
- TOTAL BILIRUBIN [1]: 0.17 mg/dL
- TOTAL PROTEIN [1]: 5.8 G/DL
- URIC ACID [1]: 2.07 mg/dL
- ABSOLUTE BASOPHIL [2]: 0 CELLS/uL
- ABSOLUTE EOSINOPHIL [2]: 0 CELLS/uL
- ABSOLUTE LYMPHOCYTE [2]: 11544.67 CELLS/uL
- ABSOLUTE MONOCYTE [2]: 213 CELLS/uL
- ABSOLUTE SEGMENTED NEUTROPHIL [2]: 1075.67 CELLS/uL
- BASOPHIL [2]: 0%
- EOSINOPHIL [2]: 0%
- ERYTHROCYTE COUNT [2]: 5.16 x10E6/uL
- HEMATOCRIT [2]: 32.83%
- HEMOGLOBIN [2]: 12.33 G/DL
- LEUKOCYTE COUNT [2]: 12.83 x10E3/uL
- LYMPHOCYTE [2]: 90%
- MEAN CORPUSCULAR HEMOGLOBIN [2]: 23.93 pg
- MEAN CORPUSCULAR HEMOGLOBIN CONCENTRATION [2]: 37.77 G/DL
- MEAN CORPUSCULAR VOLUME [2]: 63.47 fL
- MONOCYTE [2]: 1.67%
- NEUTROPHIL [2]: 8.33%
- NUCLEATED RED BLOOD CELLS [2]: 0 /100WBC
- PLATELET COUNT [2]: 1107.67 x10E3/uL
- ALANINE AMINOTRANSFERASE [2]: 62.33 u/L
- ALBUMIN [2]: 4.3 G/DL
- ALKALINE PHOSPHATASE [2]: 354.67 u/L
- ASPARTATE AMINOTRANSFERASE [2]: 90.33 u/L
- BLOOD UREA NITROGEN [2]: 17.67 mg/dL
- CARBON DIOXIDE [2]: 23 mmol/L
- CHLORIDE [2]: 104.67 MEQ/L
- CHOLESTEROL [2]: 70.33 mg/dL
- CREATINE PHOSPHOKINASE [2]: 349.67 u/L
- CREATININE [2]: 0.49 mg/dL
- GLUCOSE [2]: 153 mg/dL
- LACTATE DEHYDROGENASE [2]: 186 u/L
- LIPASE [2]: 11 u/L
- PHOSPHORUS [2]: 11.7 mg/dL
- POTASSIUM [2]: 6.42 MEQ/L
- SODIUM [2]: 146.17 MEQ/L
- TOTAL BILIRUBIN [2]: 0.2 mg/dL
- TOTAL PROTEIN [2]: 6.03 G/DL
- URIC ACID [2]: 1.63 mg/dL
- ABSOLUTE BASOPHIL [3]: 0 CELLS/uL
- ABSOLUTE EOSINOPHIL [3]: 92 CELLS/uL
- ABSOLUTE LYMPHOCYTE [3]: 10640.67 CELLS/uL
- ABSOLUTE MONOCYTE [3]: 57.67 CELLS/uL
- ABSOLUTE SEGMENTED NEUTROPHIL [3]: 1309.67 CELLS/uL
- BASOPHIL [3]: 0%
- EOSINOPHIL [3]: 0.67%
- ERYTHROCYTE COUNT [3]: 5.89 x10E6/uL
- HEMATOCRIT [3]: 38.83%
- HEMOGLOBIN [3]: 13.87 G/DL
- LEUKOCYTE COUNT [3]: 12.1 x10E3/uL
- LYMPHOCYTE [3]: 88%
- MEAN CORPUSCULAR HEMOGLOBIN [3]: 23.53 pg
- MEAN CORPUSCULAR HEMOGLOBIN CONCENTRATION [3]: 35.73 G/DL
- MEAN CORPUSCULAR VOLUME [3]: 65.93 fL
- MONOCYTE [3]: 0.33%
- NEUTROPHIL [3]: 11%
- NUCLEATED RED BLOOD CELLS [3]: 0.33 /100WBC
- PLATELET COUNT [3]: 1356.67 x10E3/uL
- ALANINE AMINOTRANSFERASE [3]: 52.33 u/L
- ALBUMIN [3]: 4.4 G/DL
- ALKALINE PHOSPHATASE [3]: 407.67 u/L
- ASPARTATE AMINOTRANSFERASE [3]: 70.33 u/L
- BLOOD UREA NITROGEN [3]: 16.67 mg/dL
- CARBON DIOXIDE [3]: 29.33 mmol/L
- CHLORIDE [3]: 102.33 MEQ/L
- CHOLESTEROL [3]: 85.33 mg/dL
- CREATINE PHOSPHOKINASE [3]: 225 u/L
- CREATININE [3]: 0.27 mg/dL
- GLUCOSE [3]: 150 mg/dL
- LACTATE DEHYDROGENASE [3]: 77 u/L
- LIPASE [3]: 9.67 u/L
- PHOSPHORUS [3]: 11.8 mg/dL
- POTASSIUM [3]: 6.59 MEQ/L
- SODIUM [3]: 146.77 MEQ/L
- TOTAL BILIRUBIN [3]: 0.17 mg/dL
- TOTAL PROTEIN [3]: 6.43 G/DL
- URIC ACID [3]: 2.1 mg/dL
- ABSOLUTE BASOPHIL [4]: 0 CELLS/uL
- ABSOLUTE EOSINOPHIL [4]: 63 CELLS/uL
- ABSOLUTE LYMPHOCYTE [4]: 13558.67 CELLS/uL
- ABSOLUTE MONOCYTE [4]: 820 CELLS/uL
- ABSOLUTE SEGMENTED NEUTROPHIL [4]: 3591.67 CELLS/uL
- BASOPHIL [4]: 0%
- EOSINOPHIL [4]: 0.33%
- ERYTHROCYTE COUNT [4]: 5.88 x10E6/uL
- HEMATOCRIT [4]: 37.4%
- HEMOGLOBIN [4]: 14 G/DL
- LEUKOCYTE COUNT [4]: 18.03 x10E3/uL
- LYMPHOCYTE [4]: 75.33%
- MEAN CORPUSCULAR HEMOGLOBIN [4]: 23.8 pg
- MEAN CORPUSCULAR HEMOGLOBIN CONCENTRATION [4]: 37.47 G/DL
- MEAN CORPUSCULAR VOLUME [4]: 63.57 fL
- MONOCYTE [4]: 4.67%
- NEUTROPHIL [4]: 19.67%
- NUCLEATED RED BLOOD CELLS [4]: 0 /100WBC
- PLATELET COUNT [4]: 1367 x10E3/uL
- ALANINE AMINOTRANSFERASE [4]: 57.67 u/L
- ALBUMIN [4]: 4 G/DL
- ALKALINE PHOSPHATASE [4]: 325.67 u/L
- ASPARTATE AMINOTRANSFERASE [4]: 70.67 u/L
- BLOOD UREA NITROGEN [4]: 19 mg/dL
- CARBON DIOXIDE [4]: 23.67 mmol/L
- CHLORIDE [4]: 104.67 MEQ/L
- CHOLESTEROL [4]: 86.33 mg/dL
- CREATINE PHOSPHOKINASE [4]: 235.67 u/L
- CREATININE [4]: 0.3 mg/dL
- GLUCOSE [4]: 163.33 mg/dL
- LACTATE DEHYDROGENASE [4]: 138.67 u/L
- LIPASE [4]: 10 u/L
- PHOSPHORUS [4]: 12.13 mg/dL
- POTASSIUM [4]: 6.32 MEQ/L
- SODIUM [4]: 145.77 MEQ/L
- TOTAL BILIRUBIN [4]: 0.13 mg/dL
- TOTAL PROTEIN [4]: 6.3 G/DL
- URIC ACID [4]: 1.7 mg/dL
